Test results from patent US10500178B2, “LTB4 inhibition to prevent and treat human lymphedema” (The Board of Trustees of the Leland Stanford Junior …, priority 2015, dated 2019).

What was measured:
[1] = test system: acquired lymphedema surgically induced in the tails of female C57BL/6J mice; assay: mouse-tail model of acquired lymphedema (tail volume, histology); assay type: in vivo; conditions: DAPT 30 mg/kg added to bestatin 4 mg/kg
Procedure: Surgical induction of experimental lymphatic vascular insufficiency. […] Briefly, a full-thickness circumferential incision of the skin was made 16 mm distal to the base of the mouse tail under anesthesia. Lymphatic trunks were ablated through controlled, limited cautery application under the surgical microscope. For surgical controls (sham animals), the skin incision alone was performed without lymphatic cautery.
All small molecule drugs were administered through daily intraperitoneal injection.
Tail volume quantitation. Tail-volume measurements at each designated time were quantified by observers blinded to the treatment status of the subjects. Tail volumes were calculated through a digital photographic technique pre-operatively, and post-operatively (d3, d9, d14, d20, and d24), using an Olympus D520 Zoom digital camera at SHQ resolution at a fixed distance from the subject (37 cm), as previously described. Tail volumes were derived from the measurement of the tail diameter using the truncated cone approximation. Microlymphangiography was performed by injecting FITC-dextran (size: 2000 kDa) subcutaneously into mouse tails on post-surgery d24. Images were taken 20 minutes after injection.
Viral particles were mixed with Lipofectamine 2,000 (5% final vol/vol, Invitrogen) before injection, to increase transduction efficiency. qRT-PCR, immunofluorescence and fluorescence in situ hybridization were used to evaluate the silencing efficiency in the mouse tail skin 24d after surgery.

VEGFR3, Vegfc, Vegfd = assay: lymphangiogenic factor levels in HLECs (qRT-PCR, Western blot); assay type: cell-based, human; conditions: 400 nM LTB4, 100 ng/ml S1P, 25 μM DAPT
Procedure: (§1) Western Blot HLECs were lysed with RIPA buffer containing protease and phosphatase inhibitors. Lysates were sonicated briefly and centrifuged. The supernatant was collected and protein concentration was determined by BCA assay. 60 µg of protein were resolved on a 10% SDS-PAGE gel, transferred to a nitrocellulose membrane, blocked with 5% milk and probed with one of the following antibodies: anti-Sphk1 (3297,Cell Signaling); antip-Sphk1(SP1641, ECM Biosciences); anti-NICD (ab8925,Abcam), anti-VEGFR3 (AF743,R&D); anti-DLL4 (ab7280, Abcam). Actin was used to normalize the total protein. Immunofluorescence Immunofluorescence staining was performed using the following primary antibodies: anti-5-LO (3289, Cell Signaling); anti-MPO (ab45977, Abcam); Anti-CD68 (ab22506, Abcam); anti-Prox1(ab101851, Abcam); anti-NICD (ab8925, Abcam), anti-EphrinB2 (AF496,R&D); anti-VEGFR3 (AF743,R&D); anti-Hey1(ab22614, Abcam); Alexa-Fluor-555 Phalloidin (8953,Cell Signaling); anti-DIG(11093274910, Sigma-Aldrich). Negative controls with isotype IgG were run in parallel. Images were acquired by Zeiss 710 confocal microscopy and analyzed using ImageJ software.
Quantitative RT-PCR. Quantitative PCR (qRT-PCR) was performed using FastStart SYBR Green (Roche) on a Lightcycler 480. mRNA expression relative to GAPDH mRNA levels were calculated using the delta-delta threshold cycle (ΔΔCT) method. PCR microarrays were purchased from Qiagen: RT2 Profiler PCR Array 384-Well Format, Mouse Angiogenesis PAMM-024ZA) and VEGF Signaling (330231 PAMM-091ZA). […]

HLECs [2] = assay: HLEC lymphangiogenesis (tube formation, migration, wound healing, sprouting); assay type: cell-based, human; conditions: for HLEC lymphangiogenesis in the presence of S1P, shS1pr1, shDll4 or DAPT: LTB4-impaired or S1P-treated HLEC cultures
Procedure: Tube formation assay. Matrigel (BD Matrigel Basement Membrane Matrix Growth Factor Reduced, Phenol Red Free) was thawed on ice overnight, dispersed into 48-well plates (100 μl per well) and allowed to polymerize for 30 minutes at 37° C. Serum starved HLECs were seeded on the Matrigel at a density of 1×10^4 cells per well. Images of four representative fields were taken 10 hrs later. ImageJ software was used to determine total cellular cord length. Migration assay. Cellular migration was evaluated using a modified Boyden chamber assay. Briefly, 2×10^4 serum-starved HLECs in 250 μl serum free medium were seeded in the upper chamber of the trans-well. 750 μl of serum free ECM containing various drugs was placed in the lower chamber. Ten hours later, migrated cells were stained with a modified Giemsa solution (Sigma-Aldrich) for quantification. Wound healing assay. 6×10^5 HLECs were seeded on an Easy Slide (Millipore) the day before the experiment and allowed to form a fully confluent monolayer, and then cells were serum starved for 12 hrs. A 200 μl pipet tip was used to scratch a straight line across the middle of the cell monolayer. Cell debris was removed through PBS washing. Images were taken immediately after the scratch and the same windows were imaged again 12 hrs later. The rate of cell migration was calculated as the average percent wound closure from at least 5 independent experiments using ImageJ software. Fibrin gel sprouting assay. HLECs were first coated overnight onto the Cytodex-3 beads with an approximate concentration of 400 cells per bead. On the following day, the microbeads were transferred to 2.0 mg/ml fibrinogen solution containing 0.15 units/ml of aprotinin. Later, 0.625 units/ml thrombin was added to the mixture to gelatinize the fibrin gel. Endothelial sprouts (vessel outgrowth) were observed within 3 days of culture using phase micrographic images and quantified as number of vessels per bead.

HLECs [3] = assay: tube formation assay on Matrigel; assay type: cell-based, human; conditions: 400 nM LTB4; 10 μM U75302+LTB4
Procedure: Tube formation assay. Matrigel (BD Matrigel Basement Membrane Matrix Growth Factor Reduced, Phenol Red Free) was thawed on ice overnight, dispersed into 48-well plates (100 μl per well) and allowed to polymerize for 30 minutes at 37° C. Serum starved HLECs were seeded on the Matrigel at a density of 1×10^4 cells per well. Images of four representative fields were taken 10 hrs later. […]

HLECs [4] = assay: trans-well migration assay; assay type: cell-based, human; conditions: 400 nM LTB4
Procedure: Migration assay. Cellular migration was evaluated using a modified Boyden chamber assay. Briefly, 2×10^4 serum-starved HLECs in 250 μl serum free medium were seeded in the upper chamber of the trans-well. 750 μl of serum free ECM containing various drugs was placed in the lower chamber. Ten hours later, migrated cells were stained with a modified Giemsa solution (Sigma-Aldrich) for quantification.

HLECs [5] = assay: fibrin gel sprouting assay; assay type: cell-based, human; conditions: 400 nM LTB4
Procedure: Fibrin gel sprouting assay. HLECs were first coated overnight onto the Cytodex-3 beads with an approximate concentration of 400 cells per bead. On the following day, the microbeads were transferred to 2.0 mg/ml fibrinogen solution containing 0.15 units/ml of aprotinin. Later, 0.625 units/ml thrombin was added to the mixture to gelatinize the fibrin gel. Endothelial sprouts (vessel outgrowth) were observed within 3 days of culture using phase micrographic images and quantified as number of vessels per bead.

HLECs [6] = assay: LTB4-mediated HLEC apoptosis; assay type: cell-based, human
[7] = test system: lymphatic vessel formation; assay: Matrigel plug assay (LYVE1, VEGFR3 staining); assay type: in vivo, mouse; conditions: Matrigel plugs in SCID mice
Procedure: Matrigel plug assay. SCID mice (NOD.Cg-Prkdcscid I/2rgtmlWjl/SzJ, The Jackson Laboratory) of 4-6 weeks of age were used for Matrigel plug injection. Two 250 μl Matrigel plugs were subcutaneously injected into the dorsal surface of the mice. Plugs were recovered with the adjacent subcutaneous tissue 14d later. Tissue was then embedded in paraffin and sectioned for staining.

p-Sphk1 = assay: Western blot of p-SphK1 in HLECs; assay type: cell-based, human; conditions: exogenous LTB4 (400 nM)
Procedure: as §1

Notch (NICD, DLL4) = assay: Western blot of NICD and DLL4 in HLECs; assay type: cell-based, human
Procedure: as §1

[8] = test system: Notch transcriptional activity; assay: CSL luciferase reporter assay in HLECs; assay type: cell-based, human
Procedure: pG13-6-CSL luciferase assay. CSL reporter activity was determined as described previously. HLECs (5.0×105) were […] and transfected with both 1 μg CSL luciferase reporter ([…]) and 10 ng Renilla luciferase pRL-SV40 (Promega) using Nucleofactor (Lonza). Luciferase and Renilla activity were then determined with Dual-Luciferase® Reporter Assay System (Promega) and Berthold dual-injection illuminometer.

HLECs [9] = assay: NICD and filopodia histology of HLECs; assay type: cell-based, human
Procedure: as §1

C[C@H](NC(=O)Cc1cc(F)cc(F)c1)C(=O)N[C@H](C(=O)OC(C)(C)C)c1ccccc1 [DAPT]
effect of adding DAPT to bestatin-therapy in lymphedema [1]: abrogated the therapeutic benefit of bestatin
VEGFR3 expression and Vegfc, Vegfd transcription (VEGFR3, Vegfc, Vegfd): inhibited
HLEC lymphangiogenesis in the presence of S1P, shS1pr1, shDll4 or DAPT (HLECs [2]): did not abrogate lymphangiogenesis entirely

CCCCC/C=C\C[C@@H](O)/C=C/C=C/C=C\[C@@H](O)CCCC(=O)O [LTB4, leukotriene B4]
tube formation (tube area) (HLECs [3]): decreased tube area
HLEC migration (HLECs [4]): inhibited HLEC migration
sprout formation in 3D-fibrin-gel assay (HLECs [5]): preventing them from forming sprouts
LEC apoptosis (HLECs [6]): induced LEC apoptosis in a concentration-dependent manner
VEGFR3 expression of HLECs in vivo [7]: inhibited the VEGFR3 expression
lymphatic vessel formation in vivo ([7]; recovered 14d later): attenuated lymphatic vessel formation
p-Sphk1 in HLECs (p-Sphk1): diminished p-Sphk1
VEGFR3 expression and Vegfc, Vegfd transcription (VEGFR3, Vegfc, Vegfd): reduced
cleaved Notch (NICD) and DLL4 levels (Notch (NICD, DLL4)): decreased
Notch transcriptional activity (CSL reporter), in words ([8]; LTB4 100-800 nm for 24 h): inhibited Notch transcriptional activity in a dose dependent fashion
reduction of reporter activity ([8]; physiologic (400 nM) levels of LTB4): > 50%
filopodia, nuclear-localized NICD and EphrinB2, cell shape (HLECs [9]): increased filopodia and less nuclear-localized NICD and EphrinB2
concentration dependence of lymphangiogenesis block (HLECs [2]; 100 nm, 200 nm, 400 nm or 800 nm LTB4): blocked lymphangiogenesis in a concentration-dependent manner

CCCCCCCCCCCCC/C=C/[C@@H](O)[C@@H](N)COP(=O)(O)O [S1P, sphingosine-1-phosphate]
VEGFR3 expression and Vegfc, Vegfd transcription (VEGFR3, Vegfc, Vegfd): increased the expression of these factors
cleaved Notch (NICD) and DLL4 levels (Notch (NICD, DLL4)): increased levels
increase of reporter activity from base line ([8]; S1P): 3 fold
filopodia, nuclear-localized NICD and EphrinB2, cell shape (HLECs [9]): unified stalk-cell shape and enhanced nuclear localization
HLEC lymphangiogenesis in the presence of S1P, shS1pr1, shDll4 or DAPT (HLECs [2]): restored the abnormal HLEC migration, differentiation, sprouting, and vessel formation caused by LTB4

CCCCC/C=C\C[C@@H](O)/C=C/c1cccc(C[C@@H](O)CCCCO)n1 [U75302]
tube formation (tube area) (HLECs [3]): normalized tube formation
